How the values were obtained:
Candida spp. = test: Compound screening: Candida proliferation (OD600, 24 h), strain panel; assay type: cell-based; settings: YNB −iron
Procedure: For experiments, yeast cells were routinely cultured in YPD media and incubated at 30°C overnight. The cultures were refreshed the next day for 2–3 h in YNB −iron (0.69% yeast nitrogen base without amino acids or iron, with 2% dextrose) media, unless stated, at the same temperature. After incubation, the optical density (OD600) of the cell cultures was measured and adjusted to 0.15.
The collismycin compounds were provided by EntreChem (Spain) at stock solutions of 20 mM in DMSO and stored at −20°C. For serial dilutions of the compounds in clear 96-well plates, intermediate stock concentrations of 100 µM of compound (100 µL for each technical replicate) were prepared in YNB −iron media unless otherwise specified, and 1:1 serial dilutions were performed using a multi-channel pipette. Fifty microliters of cell culture (OD600 = 0.15) were added to the wells containing the compounds, for a total volume of 150 µL. The final concentrations in the wells (with three technical replicates) were equivalent to 0.5, 1, 2.1, 4.2, 8.4, 16.7, 33.3, and 66.6 µM. The OD600 of each well was quantified, and the plates were incubated inside plastic bags (to prevent evaporation) at 30°C for 24 h, after which the final OD600 was measured. The EC50 was calculated using the four-parameter log logistic function with the drc package in R ([57]).

HEK-293 cells = test: CellTiter-Glo assay for human cells; assay type: cell-based; settings: HEK293, HEK-293, 24 h
Procedure: (§1) HEK-293 and HS-5 cells were stored in liquid nitrogen, in freezing medium [50% Dulbecco’s Modified Eagle’s Medium (DMEM), 40% fetal bovine serum, and 10% DMSO] for long-term storage. For experimental use, the cells were thawed and then cultured using DMEM containing 10% […] and 1% penicillin/streptomycin.
(§2) The 1:1 serial dilutions of the compounds were performed in 96-well plates to obtain a final concentration range (three technical replicates each) equivalent to 0.781, 1.562, 3.125, 6.25, 12.5, 25, 50, and 100 µM. […] The plates were placed inside plastic bags to prevent evaporation and incubated at 37°C, 5% CO2 for 24 h. One hundred microliters of CellTiter-Glo 2.0 (Promega, G9243) was added to each well and then measured for luminescence using a Synergy 2 Gen 5 plate reader from BioTek.

HS-5 cells = test: CellTiter-Glo assay for human cells; assay type: cell-based; settings: HS5, HS-5, 24 h
Procedure: as §1, §2

[1] = Nano liquid chromatography-mass spectrometry metal binding
Procedure: Liquid chromatography-mass spectrometry (LC-MS)-grade water, acetonitrile, and formic acid (≥99%) were purchased from VWR (Radnor, PA, USA). […] Metal solutions containing 2 µM, 4 µM, 6 µM, and 10 µM CaCl2, CuCl2, FeCl2, FeCl3, MgCl2, MnCl2, and ZnCl2 in 0.1% formic acid in LC-MS-grade water (hereby referred to as 0.1% formic acid) were made. A stock solution of terpyridine (100 µM) in 0.1% formic acid was made and added to the metal solutions to a final concentration of 10 µM terpyridine. All metal solutions in addition to a blank sample containing 10 µM terpyridine in 0.1% formic acid were subjected to nano liquid chromatography (nanoLC-MS) analysis. nanoLC-MS was performed using an nLC EASY 1000 pump connected to a Q-Exactive mass spectrometer (MS) with a Nanospray Flex ion source (all from Thermo Fisher Scientific, Waltham, MA, USA). For separation, a 50 µm (inner diameter) × 5 cm in-house packed nanoLC column containing 2.6-µm Accucore C18 particles (80 Å) was used. The column was packed according to the protocol from Berg et al. ([58]). Trapping of analytes prior to separation was performed online using a 2-cm Acclaim PepMap with 3-µm particles (100 Å). All columns and packing materials were obtained from Thermo Fisher Scientific. The mobile phases consisted of 0.1% formic acid (A) and 90/10/0.1 acetonitrile/water/formic acid (vol/vol/vol) (B).

C. glabrata WT = test: Cell proliferation with metal supplementation; assay type: cell-based, Candida glabrata
Procedure: One-millimolar stocks of metal solutions (CaCl2, CuCl2, FeCl2, FeCl3, MgCl2, MnCl2, and ZnCl2) were prepared in mQH2O and autoclaved. […] Fifty microliters of either mQH2O or metal solution were added to each well, including 50 µL of refreshed C. glabrata WT with an adjusted OD600 of 0.15. The 96-well plates were measured at OD600 and incubated in plastic bags to prevent evaporation for 24 h, after which the final OD600 was measured.

C. glabrata cells = test: ROS assay (H2DCF-DA fluorescence); assay type: cell-based, Candida glabrata; settings: 30 µM
[2] = tested on: C. glabrata WT (10028) cells; test: XTT metabolic assay; assay type: cell-based, Candida glabrata; settings: 0.625, 2.5, 10 µM; 6 and 24 h
[3] = tested on: C. glabrata WT (JEY10028) cells; test: Mitochondrial staining with MitoTracker; assay type: cell-based, Candida glabrata; settings: 6 h and 24 h, vs DMSO
G. mellonella larvae = test: Toxicity of compound to Galleria mellonella larvae; assay type: in vivo; settings: high concentration (30 µM)
Procedure: Galleria mellonella was obtained from R.J. Mous Livebait (The Netherlands). The larvae were selected by weight (0.2–0.3 grams) and by the absence of dark spots on the cuticle. The larvae were maintained at room temperature, and the day before the experiment, they were transferred to the temperature at which the experiment was going to be performed (30°C). The number of dead caterpillars was scored every day. […] G. mellonella were infected with either C. glabrata 2001HT or FL-256; C. glabrata cells were grown in liquid media (Oxoid) overnight at 30°C with moderate shaking (150 rpm). Groups of 20 larvae per strain were infected in each experiment. The pro-leg area was cleaned with 70% ethanol using a swab. The larvae were inoculated with 10 µL of C. glabrata suspension at 2.5 × 10^6 cells/mL in PBS containing 50 µg/mL of ampicillin by injection, using a Hamilton syringe with 26-gauge needle in the last left pro-leg.

C. albicans WT = settings: Candida albicans, 24 h, read-out: C. albicans WT Inhibition (%)

c1ccc(-c2cccc(-c3ccccn3)n2)nc1 [2,2′:6′,2′′-terpyridine]
inhibition of growth of Candida spp. compared to ColA (Candida spp.): more potently than ColA | EC50 (HEK-293 cells): 37.1 ± 6.94 µM | EC50 (HS-5 cells): 28.7 ± 8.32 µM | binding of Fe^2+ ([1]; 2-10 µM metal, 10 µM compound): preferentially binds Fe^2+ in a concentration-dependent manner | binding of Fe^3+ ([1]; 2-10 µM metal, 10 µM compound): much lesser extent than Fe^2+ | binding of Cu^2+ ([1]; even at high concentrations): hardly bind | binding of Zn^2+ ([1]; even at high concentrations): hardly bind | change of EC50 on metal addition (C. glabrata WT; +5 µM Cu^2+ (CuCl2), 24 h): significantly increased | change of EC50 on metal addition (C. glabrata WT; +5 µM FeCl2, 24 h): significantly increased | change of EC50 on metal addition (C. glabrata WT; +5 µM Zn^2+ (ZnCl2), 24 h): significantly increased | ROS formation (C. glabrata cells; 3 or 6 h): no ROS formation could be detected | ROS formation (C. glabrata cells; 24 h): significant ROS production | reduction of XTT (mitochondrial activity) [2]: significantly inhibited the reduction of XTT | MitoTracker Red CMXRos fluorescence [3]: lower fluorescence intensities | toxicity to the larvae (G. mellonella larvae): well tolerated | inhibition at 1 µM (C. albicans WT): -6.82% | inhibition at 2 µM (C. albicans WT): -0.43% | inhibition at 3 µM (C. albicans WT): 1.52% | inhibition at 4 µM (C. albicans WT): 7.25% | inhibition at 5 µM (C. albicans WT): 9.76% | inhibition at 10 µM (C. albicans WT): 79.1%

From paper PMC10845951, “Characterization of a selective, iron-chelating antifungal compound that disrupts fungal metabolism and synergizes with fluconazole” (Microbiology Spectrum, 2024)
